Where two headings read alike, the source gives them in different places.
Legend:
ICR male mice = assay: Mouse acetic acid writhing test; assay type: in vivo; conditions: hydrochloride; for ED50: Mus musculus, read-out: ED50 value (writhing suppressing effect)
Experimental: Mouse Acetic Acid Writhing Test
The analgesic effect of the test compound was evaluated by an acetic acid writhing test. For the experiment, ICR male mice were used and acclimated to a plastic open field for 30 minutes before starting the test. After acclimation, the mice were administered with the test compound (30 to 3000 μg/kg) or water for injection subcutaneously or orally, and once returned to the open field. Thirty minutes after the administration of the test compound, a 0.6% aqueous acetic acid solution was additionally administered to the same mice by intraperitoneal administration. From 10 minutes after administration of the 0.6% aqueous acetic acid solution, the number of writhing reactions (writhing reactions in which the mouse stretches while pressing the abdominal cavity against the floor) induced in the mice was measured for 10 minutes, and the number of writhing reactions was compared with that of a control group (water for injection-administrated group) to evaluate the analgesic effect of the test compound.

human κ opioid receptors = molecular target: T1, human κ opioid receptors (Homo sapiens, UniProt P41145); assay: Opioid receptor function test (Lance Ultra cAMP kit, agonist activity); assay type: cell-based; conditions: CHO cells expressing human κ opioid receptors, 10 μM forskolin, 30 minutes
T1 construct: host or cells: CHO cells
Procedure, shortened: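 CHO cells expressing human κ opioid receptor incubated 30 min with test compound (10^−14 to 10^−7 M) and 10 μM forskolin in HSS/5 mM HEPES pH 7.4 with 0.5 mM IBMX and 0.1% SA. cAMP measured by TR-FRET (Lance Ultra) 1 h after detection reagent addition.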

Metabolic stability test = assay type: in vitro ADME; conditions: human liver microsomes, 0 to 30 minutes; a hydrochloride was used
Experimental: To determine the unchanged product-residual ratio of the test compound in the reaction sample, human liver microsomes and the test compound were reacted for a predetermined time (0 to 30 minutes). The unchanged product-residual ratio at a reaction time of 0 hours was considered 100%, the residual ratio after incubation was log-linear plotted with respect to the time, a regression line (y=100 e^−kt, k=slope of the line: elimination rate constant) was determined, and the metabolic clearance CLint (mL/min/kg) was calculated using the following formula.
CLint*=k (−min)×45 (mg MS protein/g liver)×21 (g liver/kg)/MS protein (mg MS protein/mL)
*: Yamazaki S.; Skaptason J.; Romero D, Vekich S.; Jones HM.; Tan W.; Wilner KD.; Koudriakova T. Drug Metab. Dispos. 2011 March; 39 (3): 383-393.

T1 sequence (P41145 whole entry): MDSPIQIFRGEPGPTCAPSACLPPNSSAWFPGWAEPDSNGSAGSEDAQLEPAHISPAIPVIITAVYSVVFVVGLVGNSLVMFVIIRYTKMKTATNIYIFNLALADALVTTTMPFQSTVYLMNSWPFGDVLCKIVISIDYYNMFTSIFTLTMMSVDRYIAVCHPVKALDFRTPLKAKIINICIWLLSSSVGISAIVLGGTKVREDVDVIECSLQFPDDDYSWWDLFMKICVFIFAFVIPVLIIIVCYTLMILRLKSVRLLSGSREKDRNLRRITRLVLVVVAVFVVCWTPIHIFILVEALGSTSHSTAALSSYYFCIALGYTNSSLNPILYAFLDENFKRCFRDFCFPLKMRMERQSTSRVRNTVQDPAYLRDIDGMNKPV

Structure (SMILES) | EC50 (human κ opioid receptors) [nM] | CLint scaled (Metabolic stability test) [mL/min/kg] | also measured
O=C(Cc1ccccn1)N1CC[C@]23CCN(CC4CC4)[C@H](Cc4ccc(O)cc42)[C@]3(O)CC1 [Example 22, 1-((5aS,6R,11bR)-14-(cyclopropylmethyl)-5a,10-dihydroxy-1,2,5,5a,6,7-hexahydro-6,11b-(epiminoethano)naphtho[1,2-d]azepin-3(4H)-yl)-2-(pyridin-2-yl)ethan-1-one] | 0.13 | 7.2 | ED50 (ICR male mice; Oral): 0.0152 mg/kg; Writhing suppression rate (ICR male mice; Oral, dose 30 (μg/kg)): + (40 ≤ % <60: +); Writhing suppression rate (ICR male mice; Oral, dose 300 (μg/kg)): ++ (60 ≤ % <80: ++)
Oc1ccc2c(c1)[C@@]13CCN(CCc4nccs4)CC[C@@]1(O)[C@@H](C2)N(CC1CC1)CC3 [Example 31, (5aS,6R,11bS)-14-(cyclopropylmethyl)-3-(2-(thiazol-2-yl)ethyl)-2,3,4,5,6,7-hexahydro-6,11b-(epiminoethano)naphtho[1,2-d]azepine-5a,10(1H)-diol] | 0.11 | 7.5 | 
Oc1ccc2c(c1)[C@@]13CCN(CCc4cscn4)CC[C@@]1(O)[C@@H](C2)N(CC1CC1)CC3 [Example 34, (5aS,6R,11bS)-14-(cyclopropylmethyl)-3-(2-(thiazol-4-yl)ethyl)-2,3,4,5,6,7-hexahydro-6,11b-(epiminoethano)naphtho[1,2-d]azepine-5a,10(1H)-diol] | 0.04 |  | Writhing suppression rate (ICR male mice; Subcutaneous, dose 30 (μg/kg)): ++ (60 ≤ % <80: ++)
Oc1ccc2c(c1)[C@@]13CCN(CCn4cccn4)CC[C@@]1(O)[C@@H](C2)N(CC1CC1)CC3 [Example 45, (5aS,6R,11bS)-3-(2-(1H-pyrazol-1-yl)ethyl)-14-(cyclopropylmethyl)-2,3,4,5,6,7-hexahydro-6,11b-(epiminoethano)naphtho[1,2-d]azepine-5a,10(1H)-diol] | 0.17 | 4.5 | Writhing suppression rate (ICR male mice; Subcutaneous, dose 30 (μg/kg)): ++ (60 ≤ % <80: ++)
Cc1cnn(CCN2CC[C@]34CCN(CC5CC5)[C@H](Cc5ccc(O)cc53)[C@]4(O)CC2)c1 [Example 50, (5aS,6R,11bS)-14-(cyclopropylmethyl)-3-(2-(4-methyl-1H-pyrazol-1-yl)ethyl)-2,3,4,5,6,7-hexahydro-6,11b-(epiminoethano)naphtho[1,2-d]azepine-5a,10(1H)-diol] | 0.027 | 8.7 | ED50 (ICR male mice; Oral): 0.21 mg/kg; Writhing suppression rate (ICR male mice; Oral, dose 300 (μg/kg)): + (40 ≤ % <60: +); Writhing suppression rate (ICR male mice; Oral, dose 1000 (μg/kg)): +++ (80 ≤ %: +++)
Oc1ccc2c(c1)[C@@]13CCN(CCn4cc(Br)cn4)CC[C@@]1(O)[C@@H](C2)N(CC1CC1)CC3 [Example 61, (5aS,6R,11bS)-3-(2-(4-bromo-1H-pyrazol-1-yl)ethyl)-14-(cyclopropylmethyl)-2,3,4,5,6,7-hexahydro-6,11b-(epiminoethano)naphtho[1,2-d]azepine-5a,10(1H)-diol] | 0.028 | 26 | 
Oc1ccc2c(c1)[C@@]13CCN(CCc4ccccn4)CC[C@@]1(O)[C@@H](C2)N(CC1CC1)CC3 [Example 77, (5aS,6R,11bS)-14-(cyclopropylmethyl)-3-(2-(pyridin-2-yl)ethyl)-2,3,4,5,6,7-hexahydro-6,11b-(epiminoethano)naphtho[1,2-d]azepine-5a,10(1H)-diol] | 0.026 | 6.7 | ED50 (ICR male mice; sc, Subcutaneous): 0.0125 mg/kg; Writhing suppression rate (ICR male mice; Subcutaneous, dose 30 (μg/kg)): + (40 ≤ % <60: +); Writhing suppression rate (ICR male mice; Subcutaneous, dose 300 (μg/kg)): +++ (80 ≤ %: +++)
Oc1ccc2c(c1)[C@@]13CCN(CCc4ccccc4)CC[C@@]1(O)[C@@H](C2)N(CC1CC1)CC3 [Example 90, (5aS,6R,11bS)-14-(cyclopropylmethyl)-3-phenethyl-2,3,4,5,6,7-hexahydro-6,11b-(epiminoethano)naphtho[1,2-d]azepine-5a,10(1H)-diol] | 0.87 | 11.6 | 
Oc1ccc2c(c1)[C@@]13CCN(CCc4ccc5ccccc5n4)CC[C@@]1(O)[C@@H](C2)N(CC1CC1)CC3 [Example 124, (5aS,6R,11bS)-14-(cyclopropylmethyl)-3-(2-(quinolin-2-yl)ethyl)-2,3,4,5,6,7-hexahydro-6,11b-(epiminoethano)naphtho[1,2-d]azepine-5a,10(1H)-diol] | 0.04 | 14.3 | 
Cc1cc(CCN2CC[C@]34CCN(CC5CC5)[C@H](Cc5ccc(O)cc53)[C@]4(O)CC2)ns1 [Example 177, (5aS,6R,11bS)-14-(cyclopropylmethyl)-3-(2-(5-methylisothiazol-3-yl)ethyl)-2,3,4,5,6,7-hexahydro-6,11b-(epiminoethano)naphtho[1,2-d]azepine-5a,10(1H)-diol] | 0.019 | 9.5 | 
Cc1cnn(C[C@@H](C)N2CC[C@]34CCN(CC5CC5)[C@H](Cc5ccc(O)cc53)[C@]4(O)CC2)c1 [Example 229, (5aS,6R,11bS)-14-(cyclopropylmethyl)-3-((R)-1-(4-methyl-1H-pyrazol-1-yl)propan-2-yl)-2,3,4,5,6,7-hexahydro-6,11b-(epiminoethano)naphtho[1,2-d]azepine-5a,10(1H)-diol] | 0.025 | 5.1 | 
Cc1cnn(CCN2CC[C@]34CCN(CC5CC5)[C@H](Cc5ccc(C(N)=O)cc53)[C@]4(O)CC2)c1 [Example 244, (5aS,6R,11bS)-14-(cyclopropylmethyl)-5a-hydroxy-3-(2-(4-methyl-1H-pyrazol-1-yl)ethyl)-1,2,3,4,5,5a,6,7-octahydro-6,11b-(epiminoethano)naphtho[1,2-d]azepine-10-carboxamide] | 0.47 | 7.7 | 
Cc1cnn(CCN2CC[C@]34CCN(CC5CC5)[C@H](Cc5cc(C)c(O)cc53)[C@]4(O)CC2)c1 [Example 262, (5aS,6R,11bS)-14-(cyclopropylmethyl)-9-methyl-3-(2-(4-methyl-1H-pyrazol-1-yl)ethyl)-2,3,4,5,6,7-hexahydro-6,11b-(epiminoethano)naphtho[1,2-d]azepine-5a,10(1H)-diol] | 0.085 | 5.8 | 
Cc1cnn(CCN2CC[C@]34CCN(CC5CC5)[C@H](Cc5cc(Br)c(O)cc53)[C@]4(O)CC2)c1 [Example 263, (5aS,6R,11bS)-9-bromo-14-(cyclopropylmethyl)-3-(2-(4-methyl-1H-pyrazol-1-yl)ethyl)-2,3,4,5,6,7-hexahydro-6,11b-(epiminoethano)naphtho[1,2-d]azepine-5a,10(1H)-diol] | 0.89 | 18 | 
NC(=O)c1ccc2c(c1)[C@@]13CCN(C(=O)Cn4cc(C(F)(F)F)cn4)CC[C@@]1(O)[C@@H](C2)N(CC1CC1)CC3 [Example 266, (5aS,6R,11bR)-14-(cyclopropylmethyl)-5a-hydroxy-3-(2-(4-(trifluoromethyl)-1H-pyrazol-1-yl)acetyl)-1,2,3,4,5,5a,6,7-octahydro-6,11b-(epiminoethano)naphtho[1,2-d]azepine-10-carboxamide] | 0.074 | 4.4 | 
CC1C[C@@]2(O)[C@H]3Cc4ccc(O)cc4[C@]2(CCN1C(=O)Cc1ccccn1)CCN3CC1CC1 (stereo partly drawn) [Example 281, 1-((5aS,6R,11bR)-14-(cyclopropylmethyl)-5a,10-dihydroxy-4-methyl-1,2,5,5a,6,7-hexahydro-6,11b-(epiminoethano)naphtho[1,2-d]azepin-3(4H)-yl)-2-(pyridin-2-yl)ethan-1-one] | 0.14 | 13.7 | 
Cc1cc2c(cc1O)[C@@]13CCN(C(=O)Cc4ccccn4)CC[C@@]1(O)[C@@H](C2)N(CC1CC1)CC3 [Example 291, 1-((5aS,6R,11bR)-14-(cyclopropylmethyl)-5a,10-dihydroxy-9-methyl-1,2,5,5a,6,7-hexahydro-6,11b-(epiminoethano)naphtho[1,2-d]azepin-3(4H)-yl)-2-(pyridin-2-yl)ethan-1-one] | 0.55 | 8 | 
Cc1cnn(CCN2CC[C@]34CCN(CC5CC5)[C@H](Cc5cc(Cl)c(O)cc53)[C@]4(O)CC2)c1 [Example 326, (5aS,6R,11bS)-9-chloro-14-(cyclopropylmethyl)-3-(2-(4-methyl-1H-pyrazol-1-yl)ethyl)-2,3,4,5,6,7-hexahydro-6,11b-(epiminoethano)naphtho[1,2-d]azepine-5a,10(1H)-diol] | 0.18 | 10.9 | 
COc1c(O)ccc2c1[C@@]13CCN(CCn4cc(C)cn4)CC[C@@]1(O)[C@@H](C2)N(CC1CC1)CC3 [Example 332, (5aS,6R,11bS)-14-(cyclopropylmethyl)-11-methoxy-3-(2-(4-methyl-1H-pyrazol-1-yl)ethyl)-2,3,4,5,6,7-hexahydro-6,11b-(epiminoethano)naphtho[1,2-d]azepine-5a,10(1H)-diol] | 0.64 | 9.2 | 
